Laboratory results taken from patent EP0352863A2, “1,4-Dihydropyridine dicarboxylic acid derivatives” (ZAMBON GROUP S.p.A., priority 1988, dated 1990).
Read-outs that look alike come from different tables or passages of the source.

How the values were obtained:
beta₁ heart receptors = biological target: T1, beta₁ heart receptors (Mus musculus, UniProt P34971); test: binding test, beta1 heart receptors
T1 construct: from tissue; host or cells: mouse heart
Description: (§1) Moreover, the beta-blocking activity has been tested by means of the binding test both towards beta₁ heart receptors and towards beta₂ lung receptor in mouse according to the methods described in the J. Biol. Chem., 253, 5090, (1978) and in the Br. j. Pharmacol., 68, 57, (1980).

beta₂ lung receptor = biological target: T2, beta₂ lung receptor (Mus musculus, UniProt P18762); test: binding test, beta2 lung receptors
T2 construct: Ki (nM) mouse lung beta₂ receptors; from tissue; host or cells: mouse lung
Description: as §1

rabbit mesenteric artery = test: calcium-antagonist activity, rabbit mesenteric artery test (antagonism of 3 mM Ca++ in Krebs depolarizer); settings: Ca++ submaximal concentration 3mM, read-out: IC₅₀
Procedure: Calcium-antagonist activity of the compounds of formula I has been tested as capability of antagonizing the effect of Ca⁺⁺ submaximal concentrations (3mM) on preparations of rabbit mesenteric artery in Krebs depolarizer, prepared according to Towart "J. Cardiovasc. Pharmacol. 4, 895, (1982)".
The compounds of this invention, tested as calcium antagonist agents on the rabbit mesnteric artery show an IC₅₀ of from 10 to 200 (nM); Ki affinity for beta₁ receptors is of from 30 to 2000 (nM) and for beta₂ receptors is of from 20 to 5000 (nM).

anesthetized dog = test: heart rate and mean arterial pressure in the anesthetized dog; assay type: in vivo; settings: doses of from 100 to 400 ug/kg
Procedure: The compounds of formula I produce antihypertensive effects in mouse and dog with concomitant reduction of the heart rate.
For example, in the anesthetized dog, compound 1 caused a heart rate reduction of from 9 to 23% and a reduction of the mean arterial pressure of from 3 to 15% at doses of from 100 to 400 ug/kg; at the same doses diastereoisomer A caused a heart rate reduction of from 17 to 30% and a mean arterial pressure reduction of from 12 to 25%, respectively.

T1 sequence (P34971 whole entry): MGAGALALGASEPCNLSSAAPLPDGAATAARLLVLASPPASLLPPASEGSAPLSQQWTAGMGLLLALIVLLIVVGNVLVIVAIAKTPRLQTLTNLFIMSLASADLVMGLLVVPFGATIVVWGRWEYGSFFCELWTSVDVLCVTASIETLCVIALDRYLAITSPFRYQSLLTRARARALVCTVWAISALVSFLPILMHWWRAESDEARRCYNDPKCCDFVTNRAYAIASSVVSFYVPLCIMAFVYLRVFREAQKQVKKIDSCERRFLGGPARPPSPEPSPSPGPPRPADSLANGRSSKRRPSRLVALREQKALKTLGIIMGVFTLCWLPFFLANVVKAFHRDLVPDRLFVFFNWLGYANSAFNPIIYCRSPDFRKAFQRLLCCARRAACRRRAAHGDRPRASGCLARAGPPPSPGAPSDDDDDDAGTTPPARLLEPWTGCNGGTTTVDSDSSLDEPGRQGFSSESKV
T2 sequence (P18762 whole entry): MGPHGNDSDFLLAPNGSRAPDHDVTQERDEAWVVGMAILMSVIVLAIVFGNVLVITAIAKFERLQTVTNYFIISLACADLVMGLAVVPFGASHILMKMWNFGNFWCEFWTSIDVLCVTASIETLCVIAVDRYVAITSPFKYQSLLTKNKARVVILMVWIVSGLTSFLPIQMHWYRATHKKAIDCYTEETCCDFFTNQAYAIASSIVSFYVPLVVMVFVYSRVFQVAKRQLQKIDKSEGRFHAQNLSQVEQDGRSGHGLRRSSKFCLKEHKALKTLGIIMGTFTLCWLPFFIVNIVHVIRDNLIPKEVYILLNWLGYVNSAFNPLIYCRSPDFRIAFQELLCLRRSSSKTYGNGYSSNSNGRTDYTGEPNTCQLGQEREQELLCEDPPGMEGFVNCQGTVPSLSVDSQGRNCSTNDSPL

Ki (beta₁ heart receptors) | Ki (beta₂ lung receptor) | IC50 (rabbit mesenteric artery; Oryctolagus cuniculus) | IC50 (rabbit mesenteric artery) | SMILES | duration of hypotensive effect and bradycardia (anesthetized dog)
840 nM | 18000 nM | – | – | CC(C)NCC(O)COc1ccc(CC(N)=O)cc1 (stereo not shown) [atenolol, reference compound] | –
– | – | 0.047 µM | – | CCOC(=O)C1=C(C)NC(CN(C)CC(C)(C)NCC(O)COc2ccccc2OC)=C(C(=O)OCC)C1c1cccc([N+](=O)[O-])c1 (stereo not shown) [Compound 1, ethyl 1,4-dihydro-6-methyl-2-(N-methyl-N-(2-(2-hydroxy-3-(2-methoxyphenoxy)-propylamino)-2-methylpropyl)aminomethyl)-4-(3-nitrophenyl)-3,5-pyridinedicarboxylate] | –
600 nM | 2050 nM | – | 0.015 µM | CCOC(=O)C1=C(C)NC(CN(C)CC(C)(C)NCC(O)COc2ccccc2OC)=C(C(=O)OCC)C1c1cccc([N+](=O)[O-])c1 (single isomer, unassigned) [diastereoisomer A] | lasting over five hours
165 nM | 560 nM | – | 0.12 µM | CCOC(=O)C1=C(C)NC(CN(C)CC(C)(C)NCC(O)COc2ccccc2OC)=C(C(=O)OCC)C1c1cccc([N+](=O)[O-])c1 (single isomer, unassigned) [diastereoisomer B] | –
